In PubChem BioAssay (NCI):
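Dose response: 5 concentrations. Exposure: 48 h. Format: 96-well plates. Endpoint: linear interpolation; highest concentration if not reached. TGI denotes the concentration required for complete inhibition of growth.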

Legend:
Experiment in all cases: NCI anticancer screen, dose series, 48 h
SNB-78 CNS = system: SNB-78 CNS
SF-268 CNS = system: SF-268 CNS
CCRF-CEM leukemia = system: CCRF-CEM leukemia
A549 NSCLC = system: A549 NSCLC
RXF 393 renal = system: RXF 393 renal
EKVX NSCLC = system: EKVX NSCLC
HCC-2998 colon = system: HCC-2998 colon
MOLT-4 leukemia = system: MOLT-4 leukemia
RXF-631 renal = system: RXF-631 renal
M14 melanoma = system: M14 melanoma
DMS 273 small cell lung = system: DMS 273 small cell lung
OVCAR-4 ovarian = system: OVCAR-4 ovarian
HCT-15 colon = system: HCT-15 colon
COLO 205 colon = system: COLO 205 colon
SN12C renal = system: SN12C renal
UO-31 renal = system: UO-31 renal
HL-60(TB) leukemia = system: HL-60(TB) leukemia
SK-MEL-5 melanoma = system: SK-MEL-5 melanoma
LOX IMVI melanoma = system: LOX IMVI melanoma
OVCAR-5 ovarian = system: OVCAR-5 ovarian
CAKI-1 renal = system: CAKI-1 renal
NCI-H522 lung = system: NCI-H522 lung
HOP-92 NSCLC = system: HOP-92 NSCLC
MALME-3M melanoma = system: MALME-3M melanoma
IGROV1 ovarian = system: IGROV1 ovarian
SF-295 CNS = system: SF-295 CNS
DLD-1 colon = system: DLD-1 colon
OVCAR-3 ovarian = system: OVCAR-3 ovarian
SF-539 CNS = system: SF-539 CNS
K-562 leukemia = system: K-562 leukemia
HOP-18 NSCLC = system: HOP-18 NSCLC
DMS 114 small cell lung = system: DMS 114 small cell lung
UACC-62 melanoma = system: UACC-62 melanoma
NCI-H23 lung = system: NCI-H23 lung
KM12 colon = system: KM12 colon
ACHN renal = system: ACHN renal
TK-10 renal = system: TK-10 renal
UACC-257 melanoma = system: UACC-257 melanoma
SW-620 colon = system: SW-620 colon
SK-OV-3 ovarian = system: SK-OV-3 ovarian
HT29 colon = system: HT29 colon
KM20L2 colon = system: KM20L2 colon
NCI-H460 lung = system: NCI-H460 lung
NCI-H226 lung = system: NCI-H226 lung
SNB-75 CNS = system: SNB-75 CNS
A498 renal = system: A498 renal
HOP-62 NSCLC = system: HOP-62 NSCLC
M19-MEL melanoma = system: M19-MEL melanoma
LXFL 529 NSCLC = system: LXFL 529 NSCLC
SR leukemia = system: SR leukemia
RPMI-8226 leukemia = system: RPMI-8226 leukemia
XF 498 CNS = system: XF 498 CNS
SNB-19 CNS = system: SNB-19 CNS
HCT-116 colon = system: HCT-116 colon
786-0 renal = system: 786-0 renal
OVCAR-8 ovarian = system: OVCAR-8 ovarian
U251 CNS = system: U251 CNS
SK-MEL-28 melanoma = system: SK-MEL-28 melanoma
SK-MEL-2 melanoma = system: SK-MEL-2 melanoma

CCC(CC)n1cc(C(=O)NC(=O)NCCCCCOC(=O)CCCCCCCCCCC(=O)OCCCCCNC(=O)NC(=O)c2cn(C(CC)CC)c(=O)[nH]c2=O)c(=O)[nH]c1=O
TGI (SNB-78 CNS): > 100 µM
TGI (SF-268 CNS): > 100 µM
TGI (CCRF-CEM leukemia): > 100 µM
TGI (A549 NSCLC): > 100 µM
TGI (RXF 393 renal): > 100 µM
TGI (EKVX NSCLC): > 100 µM
TGI (HCC-2998 colon): > 100 µM
TGI (MOLT-4 leukemia): > 100 µM
TGI (RXF-631 renal): > 100 µM
TGI (M14 melanoma): > 100 µM
TGI (DMS 273 small cell lung): > 100 µM
TGI (OVCAR-4 ovarian): > 100 µM
TGI (HCT-15 colon): > 100 µM
TGI (COLO 205 colon): > 100 µM
TGI (SN12C renal): > 100 µM
TGI (UO-31 renal): > 100 µM
TGI (HL-60(TB) leukemia): > 100 µM
TGI (SK-MEL-5 melanoma): > 100 µM
TGI (LOX IMVI melanoma): > 100 µM
TGI (OVCAR-5 ovarian): > 100 µM
TGI (CAKI-1 renal): > 100 µM
TGI (NCI-H522 lung): > 100 µM
TGI (HOP-92 NSCLC): > 100 µM
TGI (MALME-3M melanoma): > 100 µM
TGI (IGROV1 ovarian): > 100 µM
TGI (SF-295 CNS): > 100 µM
TGI (DLD-1 colon): > 100 µM
TGI (OVCAR-3 ovarian): > 100 µM
TGI (SF-539 CNS): > 100 µM
TGI (K-562 leukemia): > 100 µM
TGI (HOP-18 NSCLC): > 100 µM
TGI (DMS 114 small cell lung): > 100 µM
TGI (UACC-62 melanoma): > 100 µM
TGI (NCI-H23 lung): > 100 µM
TGI (KM12 colon): > 100 µM
TGI (ACHN renal): > 100 µM
TGI (TK-10 renal): > 100 µM
TGI (UACC-257 melanoma): > 100 µM
TGI (SW-620 colon): > 100 µM
TGI (SK-OV-3 ovarian): > 100 µM
TGI (HT29 colon): > 100 µM
TGI (KM20L2 colon): > 100 µM
TGI (NCI-H460 lung): > 100 µM
TGI (NCI-H226 lung): > 100 µM
TGI (SNB-75 CNS): 53.5 µM
TGI (A498 renal): > 100 µM
TGI (HOP-62 NSCLC): > 100 µM
TGI (M19-MEL melanoma): > 100 µM
TGI (LXFL 529 NSCLC): > 100 µM
TGI (SR leukemia): > 100 µM
TGI (RPMI-8226 leukemia): > 100 µM
TGI (XF 498 CNS): > 100 µM
TGI (SNB-19 CNS): > 100 µM
TGI (HCT-116 colon): > 100 µM
TGI (786-0 renal): > 100 µM
TGI (OVCAR-8 ovarian): > 100 µM
TGI (U251 CNS): > 100 µM
TGI (SK-MEL-28 melanoma): > 100 µM

COC(=O)C1C2C=CC(C2)C1(C(=O)OC)S(=O)CC12CCC(CC1O)C2(C)C (configuration not stated)
TGI (SNB-78 CNS): > 100 µM
TGI (SF-268 CNS): > 100 µM
TGI (CCRF-CEM leukemia): > 100 µM
TGI (A549 NSCLC): > 100 µM
TGI (RXF 393 renal): > 100 µM
TGI (EKVX NSCLC): > 100 µM
TGI (HCC-2998 colon): > 100 µM
TGI (MOLT-4 leukemia): > 100 µM
TGI (RXF-631 renal): > 100 µM
TGI (M14 melanoma): > 100 µM
TGI (DMS 273 small cell lung): > 100 µM
TGI (OVCAR-4 ovarian): > 100 µM
TGI (HCT-15 colon): 37.7 µM
TGI (COLO 205 colon): > 100 µM
TGI (SN12C renal): > 100 µM
TGI (UO-31 renal): > 100 µM
TGI (HL-60(TB) leukemia): > 100 µM
TGI (SK-MEL-5 melanoma): > 100 µM
TGI (LOX IMVI melanoma): 40 µM
TGI (OVCAR-5 ovarian): > 100 µM
TGI (CAKI-1 renal): > 100 µM
TGI (NCI-H522 lung): > 100 µM
TGI (HOP-92 NSCLC): > 100 µM
TGI (MALME-3M melanoma): > 100 µM
TGI (IGROV1 ovarian): > 100 µM
TGI (SF-295 CNS): > 100 µM
TGI (DLD-1 colon): > 100 µM
TGI (OVCAR-3 ovarian): > 100 µM
TGI (SF-539 CNS): > 100 µM
TGI (K-562 leukemia): > 100 µM
TGI (HOP-18 NSCLC): > 100 µM
TGI (DMS 114 small cell lung): > 100 µM
TGI (UACC-62 melanoma): > 100 µM
TGI (NCI-H23 lung): > 100 µM
TGI (KM12 colon): > 100 µM
TGI (ACHN renal): > 100 µM
TGI (TK-10 renal): > 100 µM
TGI (UACC-257 melanoma): > 100 µM
TGI (SW-620 colon): 37.6 µM
TGI (SK-OV-3 ovarian): > 100 µM
TGI (HT29 colon): > 100 µM
TGI (KM20L2 colon): > 100 µM
TGI (NCI-H460 lung): > 100 µM
TGI (NCI-H226 lung): > 100 µM
TGI (SNB-75 CNS): > 100 µM
TGI (A498 renal): > 100 µM
TGI (HOP-62 NSCLC): > 100 µM
TGI (M19-MEL melanoma): > 100 µM
TGI (LXFL 529 NSCLC): > 100 µM
TGI (SR leukemia): 63.1 µM
TGI (RPMI-8226 leukemia): > 100 µM
TGI (XF 498 CNS): > 100 µM
TGI (SNB-19 CNS): > 100 µM
TGI (HCT-116 colon): > 100 µM
TGI (SK-MEL-2 melanoma): > 100 µM
TGI (786-0 renal): > 100 µM
TGI (OVCAR-8 ovarian): > 100 µM
TGI (U251 CNS): > 100 µM
TGI (SK-MEL-28 melanoma): > 100 µM
